Reference: US20240245633A1, “ROR Gamma Agonists as Enhancers of Protective Immunity” (University of Florida Research Foundation, Incorporated, priority 2015, published 2024)
pIC50: −log10 of the molar value. Marks after values point to notes of the source that are not given here.

Tests used:
Jurkat T cells = assay: PD-1 surface expression in Jurkat T cells; assay type: cell-based, human
Procedure: (§1) Using flow cytometery surface PD-1 expression was analyzed to determine if the decrease in gene expression of PD-1 correlates to a decrease of the protein on the cell surface, Cell: surface PD-1 expression was measured in murine and human T cell lines as well as in ex vivo differentiated murine TH17 cells. […] Next we examined the impact of compound treatment on differentiated murine TH17 cells. […] To determine if there was an increase in the active T cell population during TH17 cell differentiation, the population of CD62L^−PD1^− double negative cells was measured using flow cytometry. […] To determine if the effects of SR0987 on PD-1 expression would be observed in a human cell line, Jurkat T cells were treated with the compound.
(§2) Gene expression and Cell sorting. Jurkat T cells were pre-incubated with compounds for 48 hr and activated with phorbol 12-myristate 13-acetate (PMA, 50 ng/mL; Sigma) and ionomycin (1 μg/mL; Sigma) for 5 hr. For qPCR, mRNA was isolated with an RNeasy midi kit using DNase I (Qiagen), and cDNA was synthesized with high capacity cDNA Reverse Transcription kit (Applied Biosystems). IL17A, PD-1, and granzyme B gene expression were normalized to the expression of GAPDH. The sequence of primers used in this study are found in Table 2. For cell sorting, activated Jurkat T cells were stained with APC conjugated anti-human PD-1 antibody (eBioscience). […]

EL4 T lymphocytes = assay: qPCR gene expression in PMA/ionomycin stimulated EL4 cells; assay type: cell-based, murine; conditions: PMA/ionomycin 5 hr
Procedure: Here we used murine EL4 T lymphocytes or human Jurkat T cells as model systems to analyze gene expression upon T cell activation. Following treatment of cells with Phorbol 12-myristate 13-acetate (PMA) and ionomycin, the expression of granzyme B (cytotoxicity marker), PD-1 (immune checkpoint) and the RORγt target gene IL17 were analyzed by qPCR.
Gene expression and Cell sorting. Jurkat T cells were pre-incubated with compounds for 48 hr and activated with phorbol 12-myristate 13-acetate (PMA, 50 ng/mL; Sigma) and ionomycin (1 μg/mL; Sigma) for 5 hr. For qPCR, mRNA was isolated with an RNeasy midi kit using DNase I (Qiagen), and cDNA was synthesized with high capacity cDNA Reverse Transcription kit (Applied Biosystems). IL17A, PD-1, and granzyme B gene expression were normalized to the expression of GAPDH. The sequence of primers used in this study are found in Table 2. For cell sorting, activated Jurkat T cells were stained with APC conjugated anti-human PD-1 antibody (eBioscience). Cell sorting was performed using LSRII (BD Bioscience).

EL4 cells = assay: PD-1 surface expression in EL4 cells by flow cytometry; assay type: cell-based, murine; conditions: compound 48 hr
Procedure: as §1, §2

[1] = system: differentiated TH17 cells; assay: TH17 cell differentiation, flow cytometry; assay type: cell-based, murine
Procedure: as §1
TH17 cell differentiation. For naïve T cell differentiation, CD4^+T cells were enriched by negative selection using a magnetic-activated cell sorter kit (Millipore). Enriched CD4+ T cells activated with 5 μg/mL of plate-abound anti CD3 antibody and 1 μg/mL of anti-CD28 antibody in the presence of 20 μg/mL of anti-IFNγ, 20 μg/mL of anti-IL-4, 1 ng/mL of TGFβ, AND 10 ng/mL of IL-6. Four-five days post differentiation, all cells were stimulated for 5 hr with 5 ng/mL of phorbol-12-myristate-13-acetate (Sigma) and 500 ng/mL of ionomycin (Sigma) contained with brefeldin A solution (eBioscience).

Gal4-RORγ = biological target: T1, Gal4-RORγ (Homo sapiens, UniProt P51449); assay: cell-based; conditions: HEK-293T, read-out: fold induction of reporter gene expression
T1 sequence (P51449 269-508 limits assumed): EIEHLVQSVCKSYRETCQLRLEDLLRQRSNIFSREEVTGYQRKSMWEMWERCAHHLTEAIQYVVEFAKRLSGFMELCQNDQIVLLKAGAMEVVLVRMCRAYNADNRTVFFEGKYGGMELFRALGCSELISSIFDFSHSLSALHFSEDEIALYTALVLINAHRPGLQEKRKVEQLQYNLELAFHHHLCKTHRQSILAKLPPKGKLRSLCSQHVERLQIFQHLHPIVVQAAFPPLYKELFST

[2] = system: ROR target genes FGF21 and G6Pase; conditions: in cells and in vivo; cited from earlier work
RORγt = biological target: T2, RORγt (Homo sapiens, UniProt P51449); conditions: Circular Dichroism; cited from earlier work
T2 sequence (P51449 1-497 isoform P51449-2): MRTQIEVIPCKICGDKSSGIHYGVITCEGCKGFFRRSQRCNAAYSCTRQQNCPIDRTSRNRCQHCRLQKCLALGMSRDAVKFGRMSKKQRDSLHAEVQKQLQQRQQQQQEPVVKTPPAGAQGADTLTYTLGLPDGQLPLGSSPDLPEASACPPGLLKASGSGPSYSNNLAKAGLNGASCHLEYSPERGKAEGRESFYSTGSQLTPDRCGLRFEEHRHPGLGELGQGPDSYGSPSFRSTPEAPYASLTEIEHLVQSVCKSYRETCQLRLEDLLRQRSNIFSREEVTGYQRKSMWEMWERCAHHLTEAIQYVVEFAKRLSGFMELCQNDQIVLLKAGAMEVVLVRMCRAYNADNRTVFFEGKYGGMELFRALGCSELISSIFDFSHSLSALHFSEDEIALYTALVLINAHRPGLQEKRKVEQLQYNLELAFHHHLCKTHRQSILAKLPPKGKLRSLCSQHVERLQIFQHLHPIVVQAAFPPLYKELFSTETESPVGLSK

[3] = biological target: T3, RORγ LBD / SRC1-3 NR box peptide (Homo sapiens, UniProt P51449); assay: NR box peptide interaction assay (TR-FRET); assay type: biochemical; conditions: concentration response
T3 sequence (P51449 269-508 limits assumed): T1 sequence (P51449 269-508 limits assumed)
Procedure: NR box peptide interaction assay. A TR-FRET-based interaction assay was used. […] The mixtures were incubated for 2 hr at R.T., and fluorescence intensity was measured on an Envision pate reader with excitation at 340 nm and emission at 490 nm and 520 nm. The ratio of intensity at 520 nm/490 nm was used to calculate cofactor recruitment activity.

[4] = biological target: ligand binding domain (LBD) of RORγt (Homo sapiens, UniProt P51449); conditions: read-out: IC50, competitive radioligand binding; cited from earlier work
[5] = biological target: T4, RORγt LBD pretreated with ursolic acid (Homo sapiens, UniProt P51449); assay: Differential HDX-MS of RORγt pretreated with ursolic acid ± compound; assay type: binding
T4 construct: 5 μL of a 10 μM RORγt LBD solution (Apo or in complex with 10-excess compound)
T4 sequence (P51449 269-508 limits assumed): T1 sequence (P51449 269-508 limits assumed)
From the text: While the mechanism of action of RORγt agonists on regulation of the immune checkpoint receptor PD-1 is unclear, a correlation between RORγt and PD-1 expression has been observed in PD-1 knockout mice Z Regardless, to gain insights into the structural mechanism for agonist activity we examined the impact of putative agonist ligands on the conformational dynamics of RORγt. To achieve this, we utilized differential hydrogen/deuterium exchange (HDX) mass spectrometry.
HDX-MS. Solution-phase amide HDX was performed with a fully automated system as described previously with minor modifications^30,31. For differential HDX experiments, 5 μL of a 10 μM RORγt LBD solution (Apo or in complex with 10-excess compound) was diluted to 25 μL with D20-containing HDX buffer, and incubated at 4° C. for; 10 s, 30s, 60s, 900s, and 3,600s, Following on-exchange, unwanted forward or back exchange is minimized and the protein is denatured by dilution to 50 μL with 0.1% TFA in 3M urea (held at 4° C., pH 2.5). Samples are then passed across an immobilized pepsin column (prepared in house) at 50 μL min−1 (0.1% TFA, 15° C.) and the resulting peptides are trapped onto a Ce trap cartridge (Thermo Fisher, Hypersil Gold). Peptides were then gradient eluted (4% CH3CN to 40% CH3CN, 0,3% formic acid over 5 minutes, 4° C.) across a 1 mm×50 mm Cia HPLC column (Hypersil Gold, Thermo Fisher) and electrosprayed directly into a high resolution orbitrap mass spectrometer (Exactive, Thermo Fisher). Percent deuterium exchange values for peptide isotopic envelopes at each time point were calculated and processed using HDX Workbench^32 and overlaid onto RORγt crystal structures using pyMOL (DeLano Scientific). HDX data is presented as an average of three individual replicates across […] time points (10s, 60s, 300s, 900s, and 3600s).

Structure (SMILES): O=C(Nc1ccc(C(O)(C(F)(F)F)C(F)(F)F)cc1)c1ccccc1Cl [SR0987, 2-chloro-N-(4-(1,1,1,3,3,3-hexafluoro-hydroxypropan-2-yl)phenyl)benzamide]
- cell surface PD-1 expression (Jurkat T cells): decreased cell surface PD-1 expression
- IL17 mRNA expression (EL4 T lymphocytes): further increase in expression of IL17
- PD-1 mRNA expression (EL4 T lymphocytes): decrease in expression of PD-1
- granzyme B mRNA expression (EL4 T lymphocytes): did not impact the expression of granzyme B
- surface expression of PD-1 (EL4 cells): statistically significant reduction of the surface expression of PD-1
- CD62L−PD1−CD4+ cell population ([1]; compared to DMSO treated cells): statistically significant increase
- IL17 production (intracellular staining of IL17A) ([1]; murine TH17 cells): trend towards increased IL17 production
- surface PD-1 expression ([1]; murine TH17 cells): repress surface PD-1 expression

Structure (SMILES): O=C(Nc1ccc(C(O)(C(F)(F)F)C(F)(F)F)cc1)c1ccc(C(F)(F)F)cc1 [SR1078]
- fold induction at 30 µM (Gal4-RORγ): ≥ 2
- expression of ROR target genes FGF21 and G6Pase [2]: induced the expression of the ROR target genes FGF21 and G6Pase
- interaction with RORγt via thermal shift assay (RORγt): direct interaction
- interaction of RORγt with SRC1-3 NR box peptide [3]: concentration dependent increase in interaction
- pIC50 [4]: ~4.82
- protection to solvent exchange in H12 ([5]; RORγt exposed to ursolic acid, then compound): induced protection to solvent exchange in H12
- Differential HDX kinetics, peptide TEIEHLVQ ([5]; UA pretreated, 268-275, charge 2, H1): −2(3)*
- Differential HDX kinetics, peptide TEIEHLVQSVC ([5]; UA pretreated, 268-278, charge 2, H1): 0(3)*
- Differential HDX kinetics, peptide TEIEHLVQSVCKS ([5]; UA pretreated, 268-280, charge 3, H1): 1(4)*
- Differential HDX kinetics, peptide TEIEHLVQSVCKSYRETCQ ([5]; UA pretreated, 268-286, charge 3, H1): 0(3)*
- Differential HDX kinetics, peptide TEIEHLVQSVCKSYRETCQ ([5]; UA pretreated, 268-286, charge 4, H1): 1(3)*
- Differential HDX kinetics, peptide RLEDL ([5]; UA pretreated, 288-292, charge 1, H2): −2(4)*
- Differential HDX kinetics, peptide RLEDLL ([5]; UA pretreated, 288-293, charge 1, H2): −3(5)*
- Differential HDX kinetics, peptide EVTGYQRKSMWEM ([5]; UA pretreated, 304-316, charge 2, H3/H4): 1(4)*
- Differential HDX kinetics, peptide WERCAHHLTEAIQ ([5]; UA pretreated, 317-329, charge 3, H4): 0(1)*
- Differential HDX kinetics, peptide WERCAHHTEAIQY ([5]; UA pretreated, 317-330, charge 3, H4): 1(1)*
- Differential HDX kinetics, peptide WEGAKRLSGF ([5]; UA pretreated, 331-341, charge 2, H4/H5): 0(2)*
- Differential HDX kinetics, peptide FAKRLSGF ([5]; UA pretreated, 334-341, charge 2, H4/H5): 0(2)*
- Differential HDX kinetics, peptide CQNDQM ([5]; UA pretreated, 345-352, charge 1, H5/H6): 0(1)*
- Differential HDX kinetics, peptide CRAYNADNRTVF ([5]; UA pretreated, 368-377, charge 2, B1): 2(1)*
- Differential HDX kinetics, peptide YNADNRTVF ([5]; UA pretreated, 369-377, charge 2, B1): 1(3)*
- Differential HDX kinetics, peptide FEGKYGGMEL ([5]; UA pretreated, 378-387, charge 2, B2/H7): 2(3)*
- Differential HDX kinetics, peptide FRALGCSEL ([5]; UA pretreated, 388-395, charge 2, H7/H8): −1(2)*
- Differential HDX kinetics, peptide LISSIFDFSHSLSAL ([5]; UA pretreated, 396-410, charge 2, H8): 2(2)*
- Differential HDX kinetics, peptide ISSIFD ([5]; UA pretreated, 397-407, charge 1, H8): 1(2)*
- Differential HDX kinetics, peptide ISSIFDFSHSLSAL ([5]; UA pretreated, 397-410, charge 2, H8): 2(2)*
- Differential HDX kinetics, peptide IFDFSHSLSAL ([5]; UA pretreated, 400-410, charge 2, H8): 3(2)*
- Differential HDX kinetics, peptide DFSHSKSAL ([5]; UA pretreated, 402-410, charge 2, H8): 2(2)*
- Differential HDX kinetics, peptide FSHSLSAL ([5]; UA pretreated, 403-410, charge 2, H8): 2(3)*
- Differential HDX kinetics, peptide AXLPPXGKLRSLCSQ ([5]; UA pretreated, 454-478, charge 3, H11): 0(4)*
- Differential HDX kinetics, peptide HVERLQIFQHLHPIWQ ([5]; UA pretreated, 479-495, charge 2, H11): −6(3)*
- Differential HDX kinetics, peptide AAFPPLYKEL ([5]; UA pretreated, 496-505, charge 2, H12): −7(2)*
- Differential HDX kinetics, peptide AAFPPLYKELF ([5]; UA pretreated, 496-506, charge 2, H12): −5(2)*
- Differential HDX kinetics, peptide HFSEDEIAL ([5]; UA pretreated, charge 2, H9): 0(1)*
- Differential HDX kinetics, peptide QIFQHLHPIWQ ([5]; UA pretreated, charge 2, H11): −10(3)*
- Differential HDX kinetics, peptide TEIEHLVQSVCKSYRETCQL ([5]; UA pretreated, charge 3, H1): 0(4)*
- Differential HDX kinetics, peptide VRMCRAYNADNRTVF ([5]; UA pretreated, charge 3, H6/B1): 1(1)*
